In the supplement of paper PMC10307832:

Legend:
Experiment in all cases: relative viability (nuclei count vs DMSO), 5 days (fraction); higher = more cells survive
Kobe2602 + Crizotinib = compound: C1=CC(=CC=C1NC(=S)NNC2=C(C=C(C=C2[N+](=O)[O-])C(F)(F)F)[N+](=O)[O-])F [Kobe2602] + C[C@@H](Oc1cc(-c2cnn(C3CCNCC3)c2)cnc1N)c1c(Cl)ccc(F)c1Cl [Crizotinib] (partner 1 µM)
Outline: (§1)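 After 5 days of treatment, lung cancer cells in 1536-well plates were fixed and stained in a single step (final 0.05% Triton X-100, 1% formaldehyde, 1 ug/ml Hoechst) and their nuclei counted on 4× images. Treatment had been applied by pin tool the day after seeding as one drug alone or as a fixed anchor-drug dose with five library-drug doses (not always all listed) in √10 steps. Relative viability is the nuclei count of treated wells divided by that of vehicle wells, and values are medians of duplicate plates.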

Kobe2602 + Decitabine = compound: C1=CC(=CC=C1NC(=S)NNC2=C(C=C(C=C2[N+](=O)[O-])C(F)(F)F)[N+](=O)[O-])F [Kobe2602] + Nc1ncn([C@H]2C[C@H](O)[C@@H](CO)O2)c(=O)n1 [Decitabine] (partner 2 µM)
Outline: as §1

[1] = compound: COc1cc2nccc(Oc3ccc(NC(=O)C4(C(=O)Nc5ccc(F)cc5)CC4)cc3)c2cc1OC [Cabozantinib] + CCNC(=O)c1noc(-c2cc(C(C)C)c(O)cc2O)c1-c1ccc(CN2CCOCC2)cc1 [Luminespib] (partner 0.01 µM)
Outline: as §1

Zosuquidar + Luminespib = compound: O[C@@H](COc1cccc2ncccc12)CN1CCN([C@@H]2c3ccccc3[C@@H]3[C@H](c4ccccc42)C3(F)F)CC1 [Zosuquidar] + CCNC(=O)c1noc(-c2cc(C(C)C)c(O)cc2O)c1-c1ccc(CN2CCOCC2)cc1 [Luminespib] (partner 0.01 µM)
Outline: as §1

For UMC-11, the relative viability (Kobe2602 + Crizotinib; first compound 0.2 µM) was 0.578, the relative viability (Kobe2602 + Crizotinib; first compound 0.6325 µM) was 0.545 and the relative viability (Kobe2602 + Crizotinib; first compound 2 µM) was 0.672. For the same cell line, the relative viability (Kobe2602 + Crizotinib; first compound 6.325 µM) was 0.619, the relative viability (Kobe2602 + Crizotinib; first compound 20 µM) was 0.639 and the relative viability (Kobe2602 + Decitabine; first compound 0.2 µM) was 0.564. It also gave a relative viability (Kobe2602 + Decitabine; first compound 0.6325 µM) of 0.622, a relative viability (Kobe2602 + Decitabine; first compound 2 µM) of 0.675 and a relative viability (Kobe2602 + Decitabine; first compound 6.325 µM) of 0.466. It also gave a relative viability (Kobe2602 + Decitabine; first compound 20 µM) of 0.652, a relative viability ([1]; first compound 0.02 µM) of 0.941 and a relative viability ([1]; first compound 0.06325 µM) of 1.09. For the same cell line, the relative viability ([1]; first compound 0.2 µM) was 1.1, the relative viability ([1]; first compound 0.6325 µM) was 1.09 and the relative viability ([1]; first compound 2 µM) was 1.09. The relative viability (Zosuquidar + Luminespib; first compound 0.01 µM) was 0.97, the relative viability (Zosuquidar + Luminespib; first compound 0.03162 µM) was 0.943 and the relative viability (Zosuquidar + Luminespib; first compound 0.1 µM) was 1.08. It also gave a relative viability (Zosuquidar + Luminespib; first compound 0.3162 µM) of 1.1 and a relative viability (Zosuquidar + Luminespib; first compound 1 µM) of 1.18.
